Holding throughout (type): cell-based, human
Experiment [1] has as its system hPSCs (hPSC-to-NC transition). In words: hPSC-to-NC differentiation, flow cytometry of HNK-1+ p75NTR+ cells. The settings on record: for percentage of HNK-1+ p75NTR+ cells (NC yield): flow cytometry at day 10. (In general: Flow cytometry measures light scatter and fluorescence of single cells or particles in a stream.)
The subject of experiment [2] is hPSC-derived NC cells. Kind of experiment: Single-cell RNA-seq clustering of hPSC-derived NC cells. The settings on record: SAG treatment groups (day 0-4, day 0-10). The text has this:
To understand how HH signaling influences the topology of the neuronal differentiation path of NC, Applicant profiled additional 1,146 single-cell transcriptomes of NC cells with the constant (day 0-10) or early-phase (day 0-4) SAG treatment and NC-derived neurons sampled from day 32 of differentiation as shown in FIG. 4A. Together with 392 control NC cells, a total of 1,538 individual cells were sequenced with 5844 median genes and 1.16 million mean confident mapped reads per cell (FIG. 8). […]
Bulk and single-cell (sc) RNA sequencing were performed at the Centre of Genomic Science, The University of Hong Kong. […] Then, 1 μl of cDNA was checked and quantified on an Agilent Bioanalyzer high-sensitivity DNA chip. […] Libraries were checked and quantified on an Agilent Bioanalyzer high-sensitivity DNA chip (size range 150-2000 bp) and by Qubit dsDNA BR (Molecular Probes). […]
Fastq files with paired-end reads were aligned to the ENSEMBL GRCh38 (release 90, https://www.ensembl.org/) human transcriptome using Bowtie2 v2.3.4.1 (Langmead and Salzberg, 2012) with options ‘—sensitive—mp 1,1—np 1—score-min L,0,-0.1-I 1-X 2000—no-mixed—no-discordant-N 1-L 25-k 200’ which allows one mismatch during sequence alignment. Quality control of the reads of each cell was assessed using FastQC v0.11.6 (FIG. 8). Gene expression level was quantified using TPM values generated by RSEM v1.3.0 (Li and Dewey, 2011). […]

Experiment [3] concerns hPSC-derived NC cells. Kind of experiment: In vitro neuronal differentiation of FACS-sorted NC cells, immunocytochemistry. The settings on record: NC^SAG0-10 cells, day 22 of differentiation. The text has this: On the other hand, NC^SAG0-10 cells could grow and expand as competently as the control cells. Applicant then examined the differentiation potential of NC^SAG0-10 cells on the basis of their neuronal differentiation capability, as monitored by the expression of pan-neuronal markers (HU, TUJ1 and PGP9.5) and subtype markers, such as tyrosine hydroxylase (TH) for dopaminergic neurons and vasoactive intestinal polypeptide (VIP) for cholinergic neurons, which are the major subtypes of nerve cells found in the ENS.
Around 40 thousand FACS-enriched NC cells were seeded as droplets on poly-ornithine/laminin/fibronectin (PO/LM/FN)-coated 24 well plate in N2 medium containing 10 ng/ml FGF2, 3 μM CHIR99021 and 10 μM Y-27632. […]
For immunocytochemistry, the cells were fixed with 4% paraformaldehyde in PBS at room temperature for 30 min, followed by blocking with 1% bovine serum albumin (BSA) (Thermo Scientific, 23209) with or without 0.1% Triton X-100 (Sigma, T8787) in PBS buffer. […] Quantitative image analysis of differentiated neuronal cultures was performed with ImageJ. A minimum of 4,000 cells were analyzed per sample. Percentages of neuronal cells were measured over the total number of cells (DAPI) and the values reported in bar charts represent the mean±SEM.

The subject of the next experiment is hPSCs. Kind of experiment: Early-phase lineage immunocytochemistry during NC induction (SOX2+NANOG-, SNAIL+, TUJ1+/TH+).
A further experiment concerns HCOs+ENCCs explants. Kind of experiment: Electrical-field stimulation (EFS) of explanted innervated HCO kidney grafts.
Experiment [4] deals with ENCC-derived neurons in HCO explants. In words: Ex vivo neuromuscular coupling test of HCO muscle strips (DMPP stimulation).
Another experiment concerns HCOs+ENCCs. Kind of experiment: Innervated HCO model, immunostaining of neurons.

`CC1=C2C[C@H]3[C@@H](CC=C4C[C@@H](O)CC[C@@]43C)[C@@H]2CC[C@]12O[C@@H]1C[C@H](C)CN[C@H]1[C@H]2C` [cyclopamine]: the “hPSC-to-NC transition (percentage of HNK-1+p75NTR+ cells)” value in experiment [1] is reported as “dramatically suppressed”.

For the compound `CNC1CCC(N(Cc2cccc(-c3ccncc3)c2)C(=O)c2sc3ccccc3c2Cl)CC1` (stereo not shown) [SAG], the “percentage of HNK-1+ p75NTR+ cells (NC yield)” value is listed as 42.5±9.3% in experiment [1] (SAG 1 μM, days 0-10 (constant), untreated 19.6±0.51%) and “up to 44.6±9.1%” in experiment [1] (SAG added 4 days in early phase (day 0-4)). Moreover, in the experiment with hPSC-derived NC cells [2], the “proportion of SAG-specific NC intermediates (Clusters 6 & 7; SOX10-, PHOX2B+, TUBB3high) in total population” value is listed as “up to 75%”. Besides, the “numbers of TH+ and VIP+ neurons compared to control” value with hPSC-derived NC cells [3] is “Significantly greater numbers”. In addition, the “number of SOX2+NANOG- cells (ectoderm lineage commitment)” value with hPSCs (brief activation in early phase of NC induction, day 4 of differentiation) is recorded as “increases the number”. Besides, the “formation of NC-like cells (SNAIL+)” value with hPSCs (longer SAG treatment (4 days)) is “emerged as early as day 4”. Besides, the NC-to-neuron transition entry in the experiment on hPSCs (prolonged (day 0-10) or late-phase (day 4-10) SAG treatment) was “boosted the NC-to-neuron transition”. For the same compound, the “EFS-induced wave-like contractions compared to HCO+ENCC group” value in the experiment on HCOs+ENCCs explants (HCO+ENCC^SAG0_10 explants (ENCCs derived with SAG day 0-10)) is “more profound series of wave-like contractions”. Further, in experiment [4] (HCO+ENCC^SAG0_10), the “contractile responses to DMPP compared to HCO+ENCC” value is on record as “stronger contractile responses”. The “mature neurons expressing PGP9.5 and NF vs control” value in the experiment on HCOs+ENCCs (HCO+ENCCs^SAG0_10 explants) was “more mature neurons”. In addition, the “TUJ1+ and TH+ cells aligned with epithelial cells of HCOs vs control” value with HCOs+ENCCs (HCOs with ENCCs^SAG0_10 in vitro (Day 28)) was “more TUJ1^+ and TH^+ cells”. The “survival and engraftment efficiency of ENCCs to HCOs” value in the experiment on HCOs+ENCCs (SAG treatment during NC induction) is listed as “greatly improves”.

In the case of `NC1=N[C@H](O)[C@H]2[C@H]3O[C@]4(O)O[C@@H]([C@@H](O)[C@@]2(N1)[C@@H]4O)[C@]3(O)CO` [TTX, tetrodotoxin], in the experiment on HCOs+ENCCs explants, the EFS-induced contractions result was “completely inhibited” and the “contractile activity triggered by low-voltage stimulation” value is reported as “completely inhibited”. Moreover, the DMPP-induced muscle contraction result in experiment [4] is given as “completely abolished”.
